Laboratory results published in ChEMBL document CHEMBL1201862, “PubChem BioAssay data set” (2004).
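Tested at 5 concentrations; 48 h exposure; 96-well plates; endpoints linearly interpolated, else capped at highest concentration. At the GI50, growth is halved.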 The source made the active and inactive calls. Cut-off read from the data, not from the text of the source: active = GI50 up to about 1.1 µM and inactive = higher.

Legend:
Test in all cases: NCI-60 cell line screen, 48 h
SW-620 = system: SW-620
SR = system: SR
SF-268 = system: SF-268
HCC 2998 = system: HCC 2998
HCT-116 = system: HCT-116
SF-539 = system: SF-539
RPMI-8226 = system: RPMI-8226
OVCAR-4 = system: OVCAR-4
M14 = system: M14
UACC-257 = system: UACC-257
HCT-15 = system: HCT-15
SK-OV-3 = system: SK-OV-3
LXFL 529 = system: LXFL 529
A498 = system: A498
SNB-75 = system: SNB-75
MCF7 = system: MCF7
MDA-N = system: MDA-N
BT-549 = system: BT-549
MDA-MB-435 = system: MDA-MB-435
MDA-MB-231 = system: MDA-MB-231

SMILES | GI50 (SW-620) | GI50 (SR) | GI50 (SF-268) | GI50 (HCC 2998) | GI50 (HCT-116) | GI50 (SF-539) | GI50 (RPMI-8226) | GI50 (OVCAR-4) | GI50 (M14) | GI50 (UACC-257) | GI50 (HCT-15) [µM] | GI50 (SK-OV-3) | GI50 (LXFL 529) | GI50 (A498) | GI50 (SNB-75) | GI50 (MCF7) | GI50 (MDA-N) | GI50 (BT-549) | GI50 (MDA-MB-435) | GI50 (MDA-MB-231)
COc1ccc(-c2onc(-c3c(C)cc(C)cc3C)c2C2=NCCCN2)cc1 | 46.2 µM (inactive) | 36.6 µM (inactive) | 36.7 µM (inactive) | > 100 µM (inactive) | 28 µM (inactive) | 21.6 µM (inactive) | 23.6 µM (inactive) | 49.9 µM (inactive) | 21.1 µM (inactive) | 21.1 µM (inactive) | 39.1 | 30.6 µM (inactive) | > 100 µM (inactive) | – | – | – | – | – | – | –
O=C1[C@@H]2C(c3ccccc3[N+](=O)[O-])=NO[C@@H]2C(=O)N1c1ccc(Cc2ccc(N3C(=O)[C@H]4C(c5ccccc5[N+](=O)[O-])=NO[C@H]4C3=O)cc2)cc1 | > 100 µM (inactive) | > 100 µM (inactive) | > 100 µM (inactive) | > 100 µM (inactive) | > 100 µM (inactive) | > 100 µM (inactive) | > 100 µM (inactive) | > 100 µM (inactive) | > 100 µM (inactive) | > 100 µM (inactive) | > 100 | – | > 100 µM (inactive) | > 100 µM (inactive) | > 100 µM (inactive) | – | – | – | – | –
COc1ccc(CC(=O)NCCc2ccc(OC)c(OC)c2OC)cc1 | > 100 µM (inactive) | > 100 µM (inactive) | > 100 µM (inactive) | > 100 µM (inactive) | > 100 µM (inactive) | 16.4 µM (inactive) | > 100 µM (inactive) | – | > 100 µM (inactive) | > 100 µM (inactive) | – | > 100 µM (inactive) | > 100 µM (inactive) | > 100 µM (inactive) | > 100 µM (inactive) | – | – | – | – | –
O=C1OC(c2cccc(C(F)(F)F)c2)c2ccc3ccccc3c21 (centres undefined) | > 10 µM (inactive) | > 10 µM (inactive) | > 10 µM (inactive) | > 10 µM (inactive) | > 10 µM (inactive) | > 100 µM (inactive) | – | > 10 µM (inactive) | > 10 µM (inactive) | 6.32 µM (inactive) | 8.22 | > 10 µM (inactive) | 8.3 µM (inactive) | > 10 µM (inactive) | 18.7 µM (inactive) | – | – | – | – | –
NC(=S)N/C=C1\C(=O)Oc2ccccc2C1=O | 75.5 µM (inactive) | – | 24.7 µM (inactive) | 66.8 µM (inactive) | 53.5 µM (inactive) | 34 µM (inactive) | > 100 µM (inactive) | > 100 µM (inactive) | 48.5 µM (inactive) | > 100 µM (inactive) | 48 | 51.2 µM (inactive) | 85.7 µM (inactive) | 51.4 µM (inactive) | 14.1 µM (inactive) | – | – | – | – | –
OC12c3ccccc3C1CCCCCC21OCCCO1 (centres undefined) | > 100 µM (inactive) | – | > 100 µM (inactive) | – | > 100 µM (inactive) | > 100 µM (inactive) | > 100 µM (inactive) | > 100 µM (inactive) | > 100 µM (inactive) | > 100 µM (inactive) | > 100 | > 100 µM (inactive) | > 100 µM (inactive) | > 100 µM (inactive) | > 100 µM (inactive) | – | – | – | – | –
O=S1(=O)OCCOS(=O)(=O)C1(Cl)Cl | > 100 µM (inactive) | 35.6 µM (inactive) | 43.5 µM (inactive) | > 100 µM (inactive) | > 100 µM (inactive) | > 100 µM (inactive) | > 100 µM (inactive) | > 100 µM (inactive) | > 100 µM (inactive) | > 100 µM (inactive) | – | > 100 µM (inactive) | > 100 µM (inactive) | > 100 µM (inactive) | > 100 µM (inactive) | – | – | – | – | –
CCO/C=C1\N=C(c2ccccc2Br)OC1=O | > 100 µM (inactive) | – | > 100 µM (inactive) | > 100 µM (inactive) | – | > 100 µM (inactive) | > 100 µM (inactive) | > 100 µM (inactive) | > 100 µM (inactive) | > 100 µM (inactive) | > 100 | > 100 µM (inactive) | > 100 µM (inactive) | > 100 µM (inactive) | > 100 µM (inactive) | – | – | – | – | –
CCCCCCC(/C=N/O)C(C)(O)CCC (centres undefined) | > 100 µM (inactive) | – | > 100 µM (inactive) | > 100 µM (inactive) | 91.4 µM (inactive) | > 100 µM (inactive) | 54 µM (inactive) | > 100 µM (inactive) | > 100 µM (inactive) | > 100 µM (inactive) | > 100 | – | > 100 µM (inactive) | > 100 µM (inactive) | > 100 µM (inactive) | – | – | – | – | –
Cn1c2c([N+](=O)[O-])cccc2c(=O)c2c(O)cc3c(c21)C=CC(C)(C)O3 | 69.3 µM (inactive) | – | 38.9 µM (inactive) | 20.7 µM (inactive) | – | 22.5 µM (inactive) | 18.4 µM (inactive) | 20.8 µM (inactive) | 86.7 µM (inactive) | 46.5 µM (inactive) | 20.7 | 46.7 µM (inactive) | 25.6 µM (inactive) | 5.51 µM (inactive) | 23.9 µM (inactive) | – | – | – | – | –
COC(OC)[C@@H]1OC[C@@H](O)[C@@H]1n1cnc2c(N)ncnc21 | > 100 µM (inactive) | > 100 µM (inactive) | > 100 µM (inactive) | > 100 µM (inactive) | > 100 µM (inactive) | > 100 µM (inactive) | > 100 µM (inactive) | > 100 µM (inactive) | > 100 µM (inactive) | > 100 µM (inactive) | > 100 | > 100 µM (inactive) | – | > 100 µM (inactive) | > 100 µM (inactive) | > 100 µM (inactive) | > 100 µM (inactive) | > 100 µM (inactive) | > 100 µM (inactive) | > 100 µM (inactive)
COc1ccc(OC)c2c3c(ccc12)C(c1ccccc1)OC3=O (centres undefined) | 85.1 µM (inactive) | 45 µM (inactive) | > 100 µM (inactive) | > 100 µM (inactive) | 72.9 µM (inactive) | – | 24.9 µM (inactive) | 70.1 µM (inactive) | > 100 µM (inactive) | 37.7 µM (inactive) | 61 | > 100 µM (inactive) | 43.8 µM (inactive) | 81.7 µM (inactive) | 38.7 µM (inactive) | – | – | – | – | –
COc1ccc(NC(=O)CCc2cc(C(C)(C)C)[nH]n2)cc1 | > 100 µM (inactive) | > 100 µM (inactive) | > 100 µM (inactive) | > 100 µM (inactive) | > 100 µM (inactive) | > 100 µM (inactive) | > 100 µM (inactive) | – | > 100 µM (inactive) | > 100 µM (inactive) | > 100 | > 100 µM (inactive) | > 100 µM (inactive) | > 100 µM (inactive) | > 100 µM (inactive) | – | – | – | – | –
COc1cc(/C=N\O[Si](C)(C)C(C)(C)C)ccc1O[Si](C)(C)C(C)(C)C | > 100 µM (inactive) | – | 67.9 µM (inactive) | 24.5 µM (inactive) | 32.4 µM (inactive) | 41.7 µM (inactive) | 56.6 µM (inactive) | > 100 µM (inactive) | 92.5 µM (inactive) | > 100 µM (inactive) | 27.4 | > 100 µM (inactive) | 70.1 µM (inactive) | – | > 100 µM (inactive) | – | – | – | – | –
COc1cc(C(C)c2cc3c(cc2OCCCCCOc2cc4c(cc2C(C)c2cc(OC)c(OC)c(OC)c2)OCO4)OCO3)cc(OC)c1OC (centres undefined) | > 100 µM (inactive) | > 100 µM (inactive) | > 100 µM (inactive) | > 100 µM (inactive) | > 100 µM (inactive) | > 100 µM (inactive) | > 100 µM (inactive) | > 100 µM (inactive) | > 100 µM (inactive) | 33.7 µM (inactive) | > 100 | – | > 100 µM (inactive) | > 100 µM (inactive) | 59.8 µM (inactive) | – | – | – | – | –
CCOC(=O)CC1(C(=O)OCC)c2[nH]c3ccccc3c2CCN1Cc1ccccc1 (centres undefined) | 31.7 µM (inactive) | 22 µM (inactive) | 20.2 µM (inactive) | 13.7 µM (inactive) | 17 µM (inactive) | 19.9 µM (inactive) | – | 19.2 µM (inactive) | 18.6 µM (inactive) | 17.7 µM (inactive) | 29.2 | 28.5 µM (inactive) | 25.4 µM (inactive) | 19.3 µM (inactive) | 20.8 µM (inactive) | – | – | – | – | –
Cn1ccc2c(C(=O)c3ccccc3)cccc2c1=O | 37.9 µM (inactive) | 56.1 µM (inactive) | 97.7 µM (inactive) | 89.5 µM (inactive) | 36.7 µM (inactive) | 29.6 µM (inactive) | 33.2 µM (inactive) | 95.5 µM (inactive) | 36.1 µM (inactive) | > 100 µM (inactive) | 25.8 | 70.8 µM (inactive) | 67.9 µM (inactive) | – | 23.4 µM (inactive) | – | – | – | – | –
CN(C)[C@@H]1C(O)=C(C(=O)NCNCCCC(=O)O)C(=O)[C@@]2(O)C(O)=C3C(=O)c4c(O)cccc4[C@@](C)(O)[C@H]3C[C@@H]12 | > 100 µM (inactive) | > 100 µM (inactive) | > 100 µM (inactive) | > 100 µM (inactive) | > 100 µM (inactive) | > 100 µM (inactive) | > 100 µM (inactive) | > 100 µM (inactive) | > 100 µM (inactive) | > 100 µM (inactive) | > 100 | > 100 µM (inactive) | > 100 µM (inactive) | > 100 µM (inactive) | – | – | – | – | – | –
C[C@]12C=CC(=O)C=C1CC[C@@H]1[C@@H]2C(=O)C[C@@]2(C)[C@H]1CC[C@]2(O)C(=O)CO [PREDNISONE] | > 100 µM (inactive) | > 100 µM (inactive) | > 100 µM (inactive) | > 100 µM (inactive) | 59.8 µM (inactive) | > 100 µM (inactive) | > 100 µM (inactive) | > 100 µM (inactive) | > 100 µM (inactive) | > 100 µM (inactive) | > 100 | > 100 µM (inactive) | – | > 100 µM (inactive) | > 100 µM (inactive) | > 100 µM (inactive) | > 100 µM (inactive) | > 100 µM (inactive) | > 100 µM (inactive) | > 100 µM (inactive)
